Measured values reported in patent US20200054657A1, “Compositions of Matter and Methoods to Treat Cancer” (priority 2018, published 2020).
Entries after “also recorded” stand apart in the source; their conditions may differ.

Tests used:
CCRF-CEM = assay: viability of CCRF-CEM acute leukemia cells; type: cell-based; conditions: Homo sapiens, Andrographolide (50 μM) alone, read-out: cell viability
Description: (§1) FIG. 3. […] Andrographolide (50 μM) alone reduced cell viability to 54.3±2.8% in CCRF-CEM cells and to 68.5±1.4%. *** =P<0.001.
(§2) Andrographolide (50 μM) and Frondoside A (between 1 and 3 mM) was assayed for anticancer effects through determining cell viability of the two human, acute leukemia cell lines CCRF-CEM and THP-1. […] Andrographolide (50 μM) alone reduced cell viability to 54.3±2.8% in CCRF-CEM cells and to 68.5±1.4%. (FIG. 3)

THP-1 = assay: viability of THP-1 acute leukemia cells; type: cell-based; conditions: Homo sapiens; Andrographolide (50 μM) alone; second cell line not named in the sentence (THP-1)
Description: as §1, §2

[1] = tested on: HT29 human colonic cancer cells; assay: viability of HT29 colonic cancer cells; conditions: HT29 (FIG. 7); for enhancing effect of Andrographolide on the response: in the presence of Andrographolide; for reduction in viability: single agents
[2] = tested on: AsPC-1 human pancreatic cancer cells; assay: viability of AsPC-1 pancreatic cancer cells; type: cell-based; conditions: for enhancing effect of Andrographolide on the response: in the presence of Andrographolide; for enhancing effect of Andrographolide on the response / reduction in viability: AsPC-1 (FIG. 6); for comparison of effects on cell viability / reduction in viability: single agents; for comparison of effects on cell viability: AsPC-1 (FIG. 5)
Description: Andrographolide at 1 mM and Frondoside A (between 1 mM and 3 mM) were assayed for anticancer effects on the viability of the two human pancreatic cancer cell lines, AsPC-1 and S2013.

[3] = pharmacokinetics study by oral route, LC/MS/MS detection in the blood; type: in vivo, humans
Description: In a pharmacokinetics and pharmacodynamics study of Frondoside A by oral route in humans, as are known to those skilled in the arts, dosage of 10 milligrams of Frondoside A is delivered in an enteric coated gelatin capsule, as are known to those skilled in the arts and is detected by LC/MS/MS in the blood up to 20 hours later. In a pharmacokinetics and pharmacodynamics study in a huma of Frondoside A by oral route in humans, a dosage of 10 milligrams of Frondoside A in a capsule without the benefit of enteric coated capsule delivery, is not detected by LC/MS/MS in the blood up to 20 hours later.

[4] = mice; cited from earlier work
PAK-1 kinase = PAK-1 kinase (Homo sapiens, UniProt Q13153); conditions: in vitro; cited from earlier work
[5] = lack of change in CBC, liver function tests, body weight; cited from earlier work

Sequence of PAK-1 kinase (Q13153 whole entry): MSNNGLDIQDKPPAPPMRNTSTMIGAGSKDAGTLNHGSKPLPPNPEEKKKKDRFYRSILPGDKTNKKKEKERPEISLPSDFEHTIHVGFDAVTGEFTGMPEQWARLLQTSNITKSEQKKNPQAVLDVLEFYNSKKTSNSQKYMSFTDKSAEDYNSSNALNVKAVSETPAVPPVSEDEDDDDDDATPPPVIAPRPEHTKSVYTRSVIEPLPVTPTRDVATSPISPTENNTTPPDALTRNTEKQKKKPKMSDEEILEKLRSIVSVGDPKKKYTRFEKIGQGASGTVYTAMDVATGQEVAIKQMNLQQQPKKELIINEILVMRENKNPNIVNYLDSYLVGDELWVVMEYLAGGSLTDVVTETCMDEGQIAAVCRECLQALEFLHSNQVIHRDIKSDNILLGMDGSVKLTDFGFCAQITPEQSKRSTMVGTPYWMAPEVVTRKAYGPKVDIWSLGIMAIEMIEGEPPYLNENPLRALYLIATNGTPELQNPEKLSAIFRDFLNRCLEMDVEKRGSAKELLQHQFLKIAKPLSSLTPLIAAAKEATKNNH

SMILES | enhancing effect of Andrographolide on the response [1] | reduction in viability [1] | enhancing effect of Andrographolide on the response [2] | comparison of effects on cell viability [2] | reduction in viability [2] | also measured
C=C1CC[C@@H]2[C@](C)(CO)[C@H](O)CC[C@@]2(C)[C@@H]1C/C=C1/C(=O)OC[C@H]1O [Andrographolide] | – | – | – | – | – | viability at 50 µM (CCRF-CEM): 54.3 ± 2.8%; viability at 50 µM (THP-1): 68.5 ± 1.4%
CCn1c(=O)c(-c2ccc(-c3cncs3)cc2Cl)cc2cnc(Nc3ccc(N4CCN(C)CC4)cc3)nc21 [FRAX597] | no enhancing effect; also recorded: tendency of the reduced effectiveness | modest dose responsive reduction in viability | no enhancing effect; also recorded: tendency of the reduced effectiveness | less potent anti-cancer compounds | dose responsive reduction in viability | –
CCn1c(=O)c(-c2ccc(-c3cncc(C)n3)cc2Cl)cc2cnc(NCCC3CCN(C)CC3)nc21 [FRAX1036] | no enhancing effect | modest dose responsive reduction in viability | no enhancing effect | less potent anti-cancer compounds | dose responsive reduction in viability | –
CO[C@@H]1[C@@H](O)[C@H](O[C@@H]2[C@@H](O)[C@H](O[C@H]3[C@H](O)[C@@H](O[C@@H]4OC[C@@H](O)[C@H](O)[C@H]4O)[C@H](O[C@H]4[C@H](OC5CC[C@]6(C)[C@H]7CCC89C(=O)O[C@@](C)(CCCC(C)C)C8[C@@H](OC(C)=O)C[C@@]9(C)C7=CC[C@H]6C5(C)C)OC[C@@H](OS(=O)(=O)[O-])[C@@H]4O)O[C@@H]3C)OC[C@H]2O)O[C@H](CO)[C@H]1O.[Na+] (stereo partly drawn) [Frondoside A] | – | – | – | – | – | detected by LC/MS/MS in the blood up to 20 hours later ([3]; 10 milligrams in a capsule without enteric coating, human): not detected; detected by LC/MS/MS in the blood ([3]; 10 milligrams in an enteric coated gelatin capsule, humans): up to 20 hours; LD50 [4]: 9.9 mg/kg; PAK-1 inhibition (PAK-1 kinase): inhibitor of PAK-1 kinase; LD50 relative to the dose used therapeutically (LD50 in mice): more than 1000 times; toxic effects at therapeutic doses [5]: does not have toxic effects at therapeutic doses
